The test system of this assay is bacteria. Put plainly: Effect of metiram alone on bacteria.

As for metiram, the effect on bacteria entry was “very close to zero”.

Source of the values: patent US20090011935A1, “Method of Inducing Tolerance of Plants Against Bacterioses” (BASF SE, priority 2006, published 2009).
